Converted amounts (≈) assume the structure as drawn.
Assay: Inhibition of Saccharomyces cerevisiae FAS

| IC50 [µg/mL] | SMILES |
| --- | --- |
| 25 (≈ 52 µM) | O=c1c(O[C@@H]2O[C@H](CO)[C@H](O)[C@H](O)[C@H]2O)c(-c2cc(O)c(O)c(O)c2)oc2cc(O)cc(O)c12 |
| 45 (≈ 104 µM) | C[C@@H]1O[C@@H](Oc2c(-c3ccc(O)cc3)oc3cc(O)cc(O)c3c2=O)[C@H](O)[C@H](O)[C@H]1O [AFZELIN] |
| 0.19 (≈ 0.851 µM) | C/C=C/C/C=C/CCC(=O)[C@H]1O[C@H]1C(N)=O [CERULENIN] |

| SMILES | IC50 [µg/mL] |
| --- | --- |
| C[C@@H]1O[C@@H](Oc2c(-c3ccc(O)c(O)c3)oc3cc(O)cc(O)c3c2=O)[C@H](O)[C@H](O)[C@H]1O [QUERCITRIN] | 50 (≈ 112 µM) |
